Patent publication US5616593A, “Compositions containing piperine” (priority 1993, dated 1997)

Columns and labels:
[1] = Clinical study comparing bio-availability of two amlodipine formulations (with and without piperine); assay type: in vivo, human (healthy volunteers); conditions: with vs without piperine; amlodipine 10 mg, piperine 5 mg, hard gelatin capsules; 12 healthy volunteers
Procedure: Dosage Form: Hard gelatin capsules
Amlodipine and piperine were milled. The two components were blended together.
The homogenecity of five random samples of the mixture was confirmed from reproducible analysis. The formulation was then encapsulated in hard gelatin capsule in hand-operated capsule filling machine.
To compare the bio-availability of two formulations containing amlodipine (with and without piperine) a clinical study was conducted in 12 healthy volunteers.

[2] = Absorption of certain drugs through gastro-intestinal membranes; set-up: species or system human; conditions: through membranes of gastro-intestinal tract
[3] = Retention of certain drugs in the body; set-up: species or system human; conditions: combined with piperine
[4] = system: natural immune mechanism of the body; assay: Stimulation of natural immune mechanism / antibody production; set-up: species or system human
[5] = combined with known anti-tuberculosis and/or anti-leprosy drugs; cited from earlier work
[6] = system: serum proteins; assay: Binding of the serum proteins; set-up: species or system human; conditions: combined with drug
[7] = cited from earlier work
[8] = Intrinsic pharmaceutical or medicinal properties of piperine; conditions: piperine alone
[9] = Clinical trial comparing bio-availability of two pentazocine formulations (with and without piperine); assay type: in vivo, human (healthy volunteers); conditions: with vs without piperine; pentazocine 25 mg, piperine 5 mg, hard gelatin capsules; 12 healthy volunteers
Procedure: Pentazocine -- -- 25 mg.
Dosage Form: Hard gelatin capsules.
Both pentazocine and piperine were milled and were then blended together. With repeated sieving, both the components were mixed to a homogenous mixture. Five samples of mixtures were randomly selected and their homogenecity was confirmed by reproducible analysis. With the help of hand-operated capsule filling machine, the formulation was encapsulated in hard gelatin capsule.
A clinical trial was conducted in 12 healthy volunteers in order to compare the bio-availability of two formulations containing pentazocine (with and without piperine).

CCOC(=O)C1=C(COCCN)NC(C)=C(C(=O)OC)C1c1ccccc1Cl (stereo not shown) [Amlodipine]
blood levels of the active ingredient amlodipine [1]: increased blood levels

O=C(/C=C/C=C/c1ccc2c(c1)OCO2)N1CCCCC1 [Piperine]
absorption of certain drugs [2]: increase the absorption of certain drugs | retention of certain drugs in the human body [3]: retain certain drugs when combined with it in the human body for a longer period of time | stimulation of natural immune mechanism, production of antibodies against microbial infections [4]: stimulate the natural immune mechanism of the body so as to enhance the production of antibodies against microbial infections | therapeutic efficacy of anti-tuberculosis and/or anti-leprosy drugs [5]: increased therapeutic efficacy | binding of the serum proteins [6]: increase the binding of the serum proteins | solubility in organic solvents ([7]; benzene, chloroform, ether, ethyl acetate, dichloromethane, alcohol, acetic acid): soluble in benzene, chloroform, ether, ethyl acetate, dichloromethane, alcohol, acetic acid | solubility in water and petroleum ether ([7]; water, petroleum ether): insoluble in water, and petroleum ether | pharmaceutical or medicinal properties of piperine as such [8]: does not have any pharmaceutical or medicinal properties

CC(C)=CCN1CCC2(C)c3cc(O)ccc3CC1C2C (stereo not shown) [pentazocine]
blood levels of the active ingredient pentazocine [9]: increased blood levels
